Results on 1 compound are retold here after patent publication US20260256922A1, “PRODRUGS USEFUL FOR REDUCING ANTHRACYCLINE CARDIOTOXICITY” (WAKE FOREST UNIVERSITY HEALTH SCIENCES, priority 2022, published 2026).

This series can be described thus: Time-dependent DOX release from prodrugs in presence of H2O2 (LCMS). In kind it is physicochemical. The note with it: prodrug 10 μM, H2O2 10 μM, ammonium bicarbonate buffer 0.1 M pH 7.4, room temperature, over two hours. The protocol: FIG. 1. Time-course for DOX release from prodrugs (10 μM) in ammonium bicarbonate buffer (0.1 M, pH 7.4) at room temperature and in the presence of H2O2 (10 μM). A calibration curve was used to determine the concentration of free DOX at each time point by LCMS. Plotted as the mean±standard error of the mean (SEM) from three independent experiments.
To confirm this reactivity, we incubated c1 (10 μM) with H2O2 (10 μM) at room temperature in ammonium bicarbonate buffer (0.1 M, pH 7.4). At various time points, an aliquot was removed and analyzed by LCMS. Using a calibration curve, we determined the percentage of released DOX over the course of two hours. […] For comparison, we also assessed the reactivity of c2 towards the same concentration of peroxides. Like c1, c2 also functioned as an H2O2-activated DOX prodrug, but with faster kinetics, as quantitative release of free DOX was realized within 60 min.
A stock solution of c1 (or c2, 10 mM) in DMSO and H2O2 (10 mM) in ammonium bicarbonate buffer (0.1M, pH 7.4) were prepared immediately prior to use. […] At various time points (0 min, 10 min, 35 min, 60 min, 80 min, 100 min, 120 min), a 1 mL (inject volume 60 μL) aliquot was removed and analyzed by LC-MS (using a C18 analytical column and eluting at 0.4 mL/min with a linear gradient (20-90% v/v) MeOH/H2O (0-2 min), followed by 90% v/v MeOH/H2O (2-19 min)). […]

`COc1cccc2c1C(=O)c1c(O)c3c(c(O)c1C2=O)C[C@@](O)(C(=O)CO)C[C@@H]3O[C@H]1C[C@H](NC(=S)OCc2ccc(B3OC(C)(C)C(C)(C)O3)cc2)[C@H](O)[C@H](C)O1` [c1]: the “percentage of released DOX” value is given as “greater than 70%”.
